Data as given in publication PMC4832832 (Archiv Der Pharmazie, 2015).
pEC50: −log10 of the molar value. “Also recorded” adds a separate entry of the source. Where two headings read alike, the source gives them in different places.

Legend:
[1] = test system: Varicella-zoster virus (VZV) TK+(Oka strain); type: cell-based; settings: for activity against TK+ VZV strain (in words): HEL cells; for activity against varicella‐zoster virus (in words): strain not given
[2] = test system: Varicella-zoster virus (VZV) TK-(Oka strain); type: cell-based; settings: HEL cells
Coxsackie virus B4 [3] = type: cell-based; settings: for pEC50: read-out: EC50 Coxsackie virus B4, reduce virus-induced cytopathogenicity by 50%
Coxsackie virus B4 [4] = type: cell-based; settings: Vero cell cultures
Vero cells = settings: Vero cell cultures
[5] = test system: Vesicular stomatitis virus; type: cell-based; settings: for pEC50: read-out: EC50 Vesicular stomatitis virus
[6] = test system: Respiratory syncytial virus; type: cell-based; settings: for inhibitory activity against respiratory syncytial virus (in words): HeLa cells
HeLa cells = settings: HeLa cell cultures
Parainfluenza‐3 virus = experiment: organism not typed; type: cell-based
Reovirus‐1 = experiment: organism not typed; type: cell-based
Sindbis virus = experiment: microbe, parasite or virus in culture; type: cell-based
Punta Toro virus = experiment: microbe, parasite or virus in culture; type: cell-based
[7] = microscopically detectable alteration of normal cell morphology
[8] = HeLa cell cultures, unit of the DS-10.000 line
[9] = Vero cell cultures, unit of the DS-10.000 line

Molecule: Diethyl [(4‐(1‐(β‐D‐ribofuranos‐1‐yl)‐1,2,3‐triazol‐4‐yl)phenyl)(4‐chloro‐2‐methylphenylamino)methyl]phosphonate [Compound 5f]
- activity against TK+ VZV strain (in words) [1]: weak activity
- activity against varicella‐zoster virus (in words) [1]: modest activity
- activity against TK− VZV strain (in words) [2]: weak activity

Molecule: Diethyl [(4‐(1‐(β‐D‐ribofuranos‐1‐yl)‐1,2,3‐triazol‐4‐yl)phenyl)(2‐bromophenylamino)methyl]phosphonate [Compound 5c]
- activity against TK+ VZV strain (in words) [1]: weak activity
- activity against varicella‐zoster virus (in words) [1]: modest activity
- activity against TK− VZV strain (in words) [2]: weak activity

Molecule: Diethyl [(4‐(1‐(2,3,5‐tri‐O‐benzoyl‐β‐D‐ribofuranos‐1‐yl)‐1,2,3‐triazol‐4‐yl)phenyl)(benzylamino)methyl]phosphonate [Compound 4h]
- activity against Coxsackie virus B4 (in words) (Coxsackie virus B4 [3]; HeLa cells): no activity
- activity against Coxsackie virus B4 (in words) (Coxsackie virus B4 [4]): some activity; also recorded: modest inhibitory activity
- pEC50 (Coxsackie virus B4 [4]; read-out: EC50 Coxsackie virus B4, reduce virus-induced cytopathogenicity by 50%): 4.70
- Minimum cytotoxic concentration (Vero cells; [7]): >100 µM

Molecule: Diethyl [(4‐(1‐(2,3,5‐tri‐O‐benzoyl‐β‐D‐ribofuranos‐1‐yl)‐1,2,3‐triazol‐4‐yl)phenyl)(2‐bromophenylamino)methyl]phosphonate [Compound 4c]
- pEC50 [5]: < 4.00
- pEC50 (Coxsackie virus B4 [3]; HeLa cell cultures): < 4.00
- inhibitory activity against respiratory syncytial virus (in words) [6]: slight inhibition; also recorded: modest inhibitory activity
- Minimum cytotoxic concentration (HeLa cells; [7]): >100 µM

Molecule: NC(=O)c1ncn([C@@H]2O[C@H](CO)[C@@H](O)[C@H]2O)n1 [Ribavirin, ribavirin]
- pEC50 (Parainfluenza‐3 virus; Vero, read-out: EC50 Parainfluenza‐3 virus): 4.07
- pEC50 (Reovirus‐1; Vero, read-out: EC50 Reovirus‐1): < 3.60
- pEC50 (Sindbis virus; Sindbis virus, Vero, read-out: EC50 Sindbis virus): < 3.60
- pEC50 (Punta Toro virus; Punta Toro virus, Vero, read-out: EC50 Punta Toro virus): 3.95
- Minimum cytotoxic concentration (HeLa cells; [7]): >250 µM
- Minimum cytotoxic concentration (Vero cells; [7]): >250 µM

Molecule: Diethyl [(4‐(1‐(2,3,5‐tri‐O‐benzoyl‐β‐D‐ribofuranos‐1‐yl)‐1,2,3‐triazol‐4‐yl)phenyl)(2‐chlorophenylamino)methyl]phosphonate [Compound 4b]
- pEC50 [5]: < 4.00
- pEC50 (Coxsackie virus B4 [3]; HeLa cell cultures): < 4.00
- inhibitory activity against respiratory syncytial virus (in words) [6]: slight inhibition; also recorded: modest inhibitory activity
- Minimum cytotoxic concentration (HeLa cells; [7]): >100 µM

Molecule: Diethyl [(4‐(1‐(2,3,5‐tri‐O‐benzoyl‐β‐D‐ribofuranos‐1‐yl)‐1,2,3‐triazol‐4‐yl)phenyl)(4‐bromophenylamino)methyl]phosphonate [Compound 4d]
- pEC50 [5]: < 4.00
- pEC50 (Coxsackie virus B4 [3]; HeLa cell cultures): < 4.00
- Minimum cytotoxic concentration (HeLa cells; [7]): >100 µM

Molecule: dextran sulfate [DS‐10.000, reference compound]
- EC50 Vesicular stomatitis virus [5]: 12 µg/mL
- EC50 Coxsackie virus B4 (Coxsackie virus B4 [3]; [8]): >100 µg/mL
- EC50 Respiratory syncytial virus [6, 8]: 1.3 ± 0.7 µg/mL
- EC50 Parainfluenza‐3 virus (Parainfluenza‐3 virus; [9]): >100 µg/mL
- EC50 Reovirus‐1 (Reovirus‐1; [9]): >100 µg/mL
- EC50 Sindbis virus (Sindbis virus; [9]): 8.9 µg/mL
- EC50 Coxsackie virus B4 (Coxsackie virus B4 [4]; unit of the DS-10.000 line): >100 µg/mL
- EC50 Punta Toro virus (Punta Toro virus; [9]): 8.9 µg/mL
- Minimum cytotoxic concentration (HeLa cells; unit of the DS-10.000 line): >100 µg/mL
- Minimum cytotoxic concentration (Vero cells; unit of the DS-10.000 line): >100 µg/mL

Molecule: Diethyl [(4‐(1‐(β‐D‐ribofuranos‐1‐yl)‐1,2,3‐triazol‐4‐yl)phenyl)(2‐naphthalenylamino)methyl]phosphonate [Compound 5g]
- activity against TK+ VZV strain (in words) [1]: weak activity
- activity against varicella‐zoster virus (in words) [1]: modest activity
- activity against TK− VZV strain (in words) [2]: weak activity
